Reference: patent US20230210831A1, “CHRONIC KIDNEY DISEASE TREATMENT OR PREVENTION METHOD” (Japan Tobacco Inc., priority 2019, published 2023)

Key:
Assay type in all cases: cell-based
[1] = tested on: Salmonella typhimurium TA98; test: Ames test (reverse mutation test), TA98
Procedure: (§1) The solvent used herein was dimethyl sulfoxide (DMSO, 100 µL/plate).
(§2) The mixtures were preincubated at 37° C. for 20 minutes while shaking. […] Two plates per treatment were used.

[2] = tested on: Salmonella typhimurium TA1537; test: Ames test (reverse mutation test), TA1537
Procedure: as §1, §2

[3] = tested on: Salmonella typhimurium TA100; test: Ames test (reverse mutation test), TA100
Procedure: as §1, §2

[4] = tested on: Salmonella typhimurium TA1535; test: Ames test (reverse mutation test), TA1535
Procedure: as §1, §2

Escherichia coli WP2uvrA = test: Ames test (reverse mutation test), WP2uvrA
Procedure: as §1, §2

## Cc1cccc(-n2nc(N)cc2-c2cccc(OC(F)(F)F)c2)c1 [Metabolite H]
[1]; S9 Mix +, dose 2.3 µg/plate
  Number of revertant colonies TA98: 56
[1]; S9 Mix +, dose 6.9 µg/plate
  Number of revertant colonies TA98: 61
[1]; S9 Mix +, dose 21 µg/plate
  Number of revertant colonies TA98: 152
[1]; S9 Mix +, dose 62 µg/plate
  Number of revertant colonies TA98: 194
[1]; S9 Mix +, dose 185 µg/plate
  Number of revertant colonies TA98: 85
[1]; S9 Mix +, dose 556 µg/plate
  Number of revertant colonies TA98: 56
[1]; S9 Mix +, dose 1667 µg/plate
  Number of revertant colonies TA98: 48
[1]; S9 Mix +, dose 5000 µg/plate
  Number of revertant colonies TA98: 20
[1]; S9 Mix -, dose 2.3 µg/plate
  Number of revertant colonies TA98: 18
[1]; S9 Mix -, dose 6.9 µg/plate
  Number of revertant colonies TA98: 23
[1]; S9 Mix -, dose 21 µg/plate
  Number of revertant colonies TA98: 18
[1]; S9 Mix -, dose 62 µg/plate
  Number of revertant colonies TA98: 20
[1]; S9 Mix -, dose 185 µg/plate
  Number of revertant colonies TA98: 22
[1]; S9 Mix -, dose 556 µg/plate
  Number of revertant colonies TA98: 20
[1]; S9 Mix -, dose 1667 µg/plate
  Number of revertant colonies TA98: 17
[1]; S9 Mix -, dose 5000 µg/plate
  Number of revertant colonies TA98: 3
[1]; TA98 with S9 mix
  potential to induce reverse mutations: showed potential to induce reverse mutations
[2]; S9 Mix +, dose 2.3 µg/plate
  Number of revertant colonies TA1537: 11
[2]; S9 Mix +, dose 6.9 µg/plate
  Number of revertant colonies TA1537: 15
[2]; S9 Mix +, dose 21 µg/plate
  Number of revertant colonies TA1537: 26
[2]; S9 Mix +, dose 62 µg/plate
  Number of revertant colonies TA1537: 35
[2]; S9 Mix +, dose 185 µg/plate
  Number of revertant colonies TA1537: 18
[2]; S9 Mix +, dose 556 µg/plate
  Number of revertant colonies TA1537: 10
[2]; S9 Mix +, dose 1667 µg/plate
  Number of revertant colonies TA1537: 19
[2]; S9 Mix +, dose 5000 µg/plate
  Number of revertant colonies TA1537: 15
[2]; S9 Mix -, dose 2.3 µg/plate
  Number of revertant colonies TA1537: 9
[2]; S9 Mix -, dose 6.9 µg/plate
  Number of revertant colonies TA1537: 9
[2]; S9 Mix -, dose 21 µg/plate
  Number of revertant colonies TA1537: 11
[2]; S9 Mix -, dose 62 µg/plate
  Number of revertant colonies TA1537: 9
[2]; S9 Mix -, dose 185 µg/plate
  Number of revertant colonies TA1537: 4
[2]; S9 Mix -, dose 556 µg/plate
  Number of revertant colonies TA1537: 6
[2]; S9 Mix -, dose 1667 µg/plate
  Number of revertant colonies TA1537: 5
[2]; S9 Mix -, dose 5000 µg/plate
  Number of revertant colonies TA1537: 2
[2]; TA1537 with S9 mix
  potential to induce reverse mutations: showed potential to induce reverse mutations
[3]; S9 Mix +, dose 2.3 µg/plate
  Number of revertant colonies TA100: 449
[3]; S9 Mix +, dose 6.9 µg/plate
  Number of revertant colonies TA100: 1035
[3]; S9 Mix +, dose 21 µg/plate
  Number of revertant colonies TA100: 2000
[3]; S9 Mix +, dose 62 µg/plate
  Number of revertant colonies TA100: 2212
[3]; S9 Mix +, dose 185 µg/plate
  Number of revertant colonies TA100: 722
[3]; S9 Mix +, dose 556 µg/plate
  Number of revertant colonies TA100: 373
[3]; S9 Mix +, dose 1667 µg/plate
  Number of revertant colonies TA100: 242
[3]; S9 Mix +, dose 5000 µg/plate
  Number of revertant colonies TA100: 75
[3]; S9 Mix -, dose 2.3 µg/plate
  Number of revertant colonies TA100: 130
[3]; S9 Mix -, dose 6.9 µg/plate
  Number of revertant colonies TA100: 127
[3]; S9 Mix -, dose 21 µg/plate
  Number of revertant colonies TA100: 136
[3]; S9 Mix -, dose 62 µg/plate
  Number of revertant colonies TA100: 113
[3]; S9 Mix -, dose 185 µg/plate
  Number of revertant colonies TA100: 103
[3]; S9 Mix -, dose 556 µg/plate
  Number of revertant colonies TA100: 88
[3]; S9 Mix -, dose 1667 µg/plate
  Number of revertant colonies TA100: 79
[3]; S9 Mix -, dose 5000 µg/plate
  Number of revertant colonies TA100: 55
[3]; TA100 with S9 mix
  potential to induce reverse mutations: showed potential to induce reverse mutations
[4]; S9 Mix +, dose 1667 µg/plate
  Number of revertant colonies TA1535: 3
[4]; S9 Mix -, dose 185 µg/plate
  Number of revertant colonies TA1535: 14
[4]; S9 Mix -, dose 1667 µg/plate
  Number of revertant colonies TA1535: 6
Escherichia coli WP2uvrA; S9 Mix +, dose 2.3 µg/plate
  Number of revertant colonies WP2uvrA: 23
Escherichia coli WP2uvrA; S9 Mix +, dose 6.9 µg/plate
  Number of revertant colonies WP2uvrA: 25
Escherichia coli WP2uvrA; S9 Mix +, dose 21 µg/plate
  Number of revertant colonies WP2uvrA: 25
Escherichia coli WP2uvrA; S9 Mix +, dose 62 µg/plate
  Number of revertant colonies WP2uvrA: 35
Escherichia coli WP2uvrA; S9 Mix +, dose 185 µg/plate
  Number of revertant colonies WP2uvrA: 26
Escherichia coli WP2uvrA; S9 Mix +, dose 556 µg/plate
  Number of revertant colonies WP2uvrA: 20
Escherichia coli WP2uvrA; S9 Mix +, dose 1667 µg/plate
  Number of revertant colonies WP2uvrA: 19
Escherichia coli WP2uvrA; S9 Mix +, dose 5000 µg/plate
  Number of revertant colonies WP2uvrA: 9
Escherichia coli WP2uvrA; S9 Mix -, dose 2.3 µg/plate
  Number of revertant colonies WP2uvrA: 21
Escherichia coli WP2uvrA; S9 Mix -, dose 6.9 µg/plate
  Number of revertant colonies WP2uvrA: 18
Escherichia coli WP2uvrA; S9 Mix -, dose 21 µg/plate
  Number of revertant colonies WP2uvrA: 18
Escherichia coli WP2uvrA; S9 Mix -, dose 62 µg/plate
  Number of revertant colonies WP2uvrA: 20
Escherichia coli WP2uvrA; S9 Mix -, dose 185 µg/plate
  Number of revertant colonies WP2uvrA: 20
Escherichia coli WP2uvrA; S9 Mix -, dose 556 µg/plate
  Number of revertant colonies WP2uvrA: 17
Escherichia coli WP2uvrA; S9 Mix -, dose 1667 µg/plate
  Number of revertant colonies WP2uvrA: 13
Escherichia coli WP2uvrA; S9 Mix -, dose 5000 µg/plate
  Number of revertant colonies WP2uvrA: 8
